PMC6349854, “GLUT1 and GLUT3 involvement in anthocyanin gastric transport- Nanobased targeted approach” (Scientific Reports, 2019)

Tests used:
MKN-28 cells = assay: Transepithelial transport of anthocyanins through MKN-28 gastric barrier (apical to basolateral); format: in vitro ADME, human; details: for paracellular transport efficiency: 4 °C; for paracellular transport efficiency / transport efficiency at 180 minutes: apical pH 5.0, basolateral pH 7.4, anthocyanin 500 µM; for transport efficiency at 180 minutes: 37 °C
Description: (§1) Transepithelial transport experiments were performed using a similar procedure from the one described elsewhere. […] Cells were cultured at 37 °C in an atmosphere of 5% CO2 and the medium was changed every two days.
(§2) After this treatment, media was removed and cells were washed with Hanks’ medium (HBSS), pH 7.4 at the basolateral side and with HBSS pH 5.0 at the apical side. Anthocyanin solution (500 µM) in HBSS pH 5.0 was added to the apical side of the cells and HBSS containing 2% fetal bovine serum free of polyphenols was added to the basolateral compartment. Transepithelial transport was followed as a function of time, at 4 °C and 37 °C. Samples were taken from the basolateral side and replaced by fresh medium. The samples (150 µL) were acidified with HCl 6 M to a final concentration of 1% and frozen at −18 °C until HPLC analysis.

[1] = tested on: Mv3glc transport through MKN-28 barrier; assay: Effect of transporter inhibitors on anthocyanin transport through MKN-28 barrier; format: cell-based, human
Description: as §1, §2

Row | SMILES | paracellular transport efficiency (MKN-28 cells) | transport efficiency at 180 minutes (MKN-28 cells; 180 min) | also measured
1 | COc1cc(-c2[o+]c3cc(O)cc(O)c3cc2O[C@@H]2O[C@H](CO)[C@@H](O)[C@H](O)[C@H]2O)cc(OC)c1O [Mv3glc, Malvidin-3-O-glucoside] | below 2% | ~ 10% | inhibitory effect on transport when both transporters inhibited simultaneously (MKN-28 cells; GLUT1 and GLUT3 silenced together (AuNP@GLUT1 + 3), 24 h + 24 h): much more pronounced and additive; relative reduction of transport (MKN-28 cells; after silencing of GLUT1 or GLUT3 by nanoconjugates 24 h + 24 h, 180 min, versus respective control (AuNP@PEG)): around 25%
2 | COc1cc(-c2[o+]c3cc(O)cc(O)c3cc2O[C@@H]2O[C@H](CO)[C@@H](O)[C@H](O)[C@H]2O)ccc1O [Pn3glc, Peonidin-3-O-glucoside] | below 2% | ~ 10% | –
3 | CCCN(CCC)S(=O)(=O)c1ccc(C(=O)O)cc1 [Probenecid] | – | – | effect on Mv3glc transport ([1]; inhibitor 50 µM, apical pH 5.0, basolateral pH 7.4): no effect
4 | C=C1[C@@H](C)[C@H]2[C@H](Cc3ccccc3)NC(=O)[C@]23OC(=O)/C=C/[C@H](O)CCC[C@@H](C)C/C=C/[C@H]3[C@@H]1O [cytochalasin B] | – | – | inhibitory effect on anthocyanin transport ([1]; cytochalasin B 50 µM added simultaneously with AuNP@GLUT1 + 3): inhibitory effect was higher
